Structures are written as SMILES. Numbered stars: 1 amine (or outer) side, 2 acyl side, 3 side chain; on linkers, the order of the positions; unused ones are H or OH. Square brackets hold non-standard residues; d marks the D form. Side chains are listed from the residue outwards. Peptide text beside a SMILES is read from it. * marks the point of attachment. γGlu = O=C(O)[C@H](CCC(=O)[*:2])N[*:1]; Palmitoyl = CCCCCCCCCCCCCCCC(=O)*; Aib = CC(C)(N)C(=O)O

The target of test [1] is T1, human GLP-1R (Homo sapiens, UniProt P43220).
T1 construct: expressed in transfected cells; host or cells: HEK293
T1 sequence (P43220 24-463): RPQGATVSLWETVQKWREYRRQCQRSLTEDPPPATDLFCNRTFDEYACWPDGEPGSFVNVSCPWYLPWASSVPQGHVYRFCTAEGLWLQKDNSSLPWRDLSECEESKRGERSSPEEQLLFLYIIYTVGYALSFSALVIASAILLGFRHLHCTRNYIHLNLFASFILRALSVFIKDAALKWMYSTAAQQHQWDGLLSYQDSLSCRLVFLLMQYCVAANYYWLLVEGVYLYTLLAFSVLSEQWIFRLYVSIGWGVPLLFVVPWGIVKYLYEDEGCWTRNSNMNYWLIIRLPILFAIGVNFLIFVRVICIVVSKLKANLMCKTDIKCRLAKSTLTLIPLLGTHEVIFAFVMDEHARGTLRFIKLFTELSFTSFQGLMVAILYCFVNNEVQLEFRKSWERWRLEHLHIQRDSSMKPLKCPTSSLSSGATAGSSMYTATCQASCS
The experiment in a line: cAMP formation in HEK293 cells expressing human GLP-1R. It counts as cell-based. To be noted: 15 min at 37° C. The text has this:
(§1) Similarly, activation of the GLP-1 receptor by a GLP-1 agonist will stimulate cellular cAMP formation. Thus, production of cAMP in suitable cells expressing one of these two receptors can be used to monitor the relevant receptor activity.
(§2) The skilled person will be aware of suitable assay formats, and examples are provided below. […] (Where sequences of precursor proteins are referred to, it should of course be understood that assays may make use of the mature protein, lacking the signal sequence).
(§3) On the day of analysis, growth medium was removed and the cells washed once with 200 μl Tyrode buffer. Cells were incubated in […] containing increasing concentrations of test peptides, 100 μM IBMX, and 6 mM glucose for 15 min at 37° C. The reaction was stopped by addition of 25 μl 0.5 M HCl and incubated on ice for 60 min. The cAMP content was estimated using the FlashPlate® cAMP kit from Perkin-Elmer. EC50 values were estimated by computer aided curve fitting.
On the technique in general: Changes in cAMP serve as a functional read-out for many G protein-coupled receptors.

The target in test [2] is T2, human glucagon receptor (Homo sapiens, UniProt P47871).
T2 construct: expressed in transfected cells; host or cells: HEK293
T2 sequence (P47871 26-477): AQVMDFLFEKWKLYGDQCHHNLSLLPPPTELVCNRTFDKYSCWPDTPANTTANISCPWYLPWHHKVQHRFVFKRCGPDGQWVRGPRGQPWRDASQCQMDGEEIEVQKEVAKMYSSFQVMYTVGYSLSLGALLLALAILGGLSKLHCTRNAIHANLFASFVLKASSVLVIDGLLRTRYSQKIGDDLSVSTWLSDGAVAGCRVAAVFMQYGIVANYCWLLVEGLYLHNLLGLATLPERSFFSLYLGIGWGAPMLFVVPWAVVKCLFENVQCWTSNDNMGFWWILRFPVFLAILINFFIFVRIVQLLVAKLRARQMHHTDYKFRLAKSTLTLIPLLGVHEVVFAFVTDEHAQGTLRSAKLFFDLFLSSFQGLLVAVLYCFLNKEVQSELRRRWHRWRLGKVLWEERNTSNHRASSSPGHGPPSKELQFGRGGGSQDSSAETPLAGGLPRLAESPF
The experiment in a line: cAMP formation in HEK293 cells expressing the human glucagon receptor. In kind it is cell-based. To be noted: 15 min at 37° C., read-out: EC50 (nM) GuR.
From the text: as §1, §2, §3

With `CC(C)C[C@H](NC(=O)[C@H](CC(C)C)NC(=O)[C@H](Cc1c[nH]c2ccccc12)NC(=O)[C@H](CCC(=O)O)NC(=O)[C@@H](NC(=O)[C@H](Cc1ccccc1)NC(=O)[C@H](CC(=O)O)NC(=O)[C@H](Cc1c[nH]cn1)NC(=O)[C@H](C)NC(=O)[C@H](C)NC(=O)[C@H](CCCCN)NC(=O)[C@H](CO)NC(=O)[C@H](CC(=O)O)NC(=O)[C@H](CC(C)C)NC(=O)[C@H](Cc1ccc(O)cc1)NC(=O)[C@H](CCCCN)NC(=O)[C@H](CO)NC(=O)[C@H](Cc1ccc(O)cc1)NC(=O)[C@H](CC(=O)O)NC(=O)[C@H](CO)NC(=O)[C@@H](NC(=O)[C@H](Cc1ccccc1)NC(=O)[C@@H](NC(=O)CNC(=O)[C@H](CCC(N)=O)NC(=O)C(C)(C)NC(=O)[C@@H](N)Cc1c[nH]cn1)[C@@H](C)O)[C@@H](C)O)C(C)C)C(=O)N[C@@H](CCCNC(=N)N)C(=O)N[C@@H](C)C(N)=O` [Compound 45] (H-H[Aib]QGTFTSDYSKYLDSKAAHDFVEWLLRA-NH2), the EC50 (as a rule, the concentration needed to bring the measured effect to its halfway point) is 0.08 nM in test [1] and 0.06 nM in test [2].
Regarding `CCCCCCCCCCCCCCCC(=O)N[C@@H](CCC(=O)NCCCC[C@H](NC(=O)[C@H](C)NC(=O)[C@H](C)NC(=O)[C@H](CCCCN)NC(=O)[C@H](CO)NC(=O)[C@H](CC(=O)O)NC(=O)[C@H](CC(C)C)NC(=O)[C@H](Cc1ccc(O)cc1)NC(=O)[C@H](CCCCN)NC(=O)[C@H](CO)NC(=O)[C@H](Cc1ccc(O)cc1)NC(=O)[C@H](CC(=O)O)NC(=O)[C@H](CO)NC(=O)[C@@H](NC(=O)[C@H](Cc1ccccc1)NC(=O)[C@@H](NC(=O)CNC(=O)[C@H](CCC(N)=O)NC(=O)[C@H](CO)NC(=O)[C@@H](N)Cc1c[nH]cn1)[C@@H](C)O)[C@@H](C)O)C(=O)N[C@@H](CC(=O)O)C(=O)N[C@@H](Cc1ccccc1)C(=O)N[C@H](C(=O)N[C@@H](CCC(=O)O)C(=O)N[C@@H](Cc1c[nH]c2ccccc12)C(=O)N[C@@H](CC(C)C)C(=O)N[C@@H](CC(C)C)C(=O)N[C@@H](CCCNC(=N)N)C(=O)N[C@@H](C)C(N)=O)C(C)C)C(=O)O` [Compound 204] (H-HSQGTFTSDYSKYLDSKAAK([γGlu-Palmitoyl])DFVEWLLRA-NH2), the results for the EC50 in test [1] and in test [2] were 0.1 nM and 0.04 nM, respectively.
As for `CCCCCCCCCCCCCCCC(=O)N[C@@H](CCC(=O)NCCCC[C@H](NC(=O)[C@H](CC(C)C)NC(=O)[C@H](CC(C)C)NC(=O)[C@H](Cc1c[nH]c2ccccc12)NC(=O)[C@H](CCC(=O)O)NC(=O)[C@@H](NC(=O)[C@H](Cc1ccccc1)NC(=O)[C@H](CC(=O)O)NC(=O)[C@H](Cc1c[nH]cn1)NC(=O)[C@H](C)NC(=O)[C@H](C)NC(=O)[C@H](CCCCN)NC(=O)[C@H](CO)NC(=O)[C@H](CC(=O)O)NC(=O)[C@H](CC(C)C)NC(=O)[C@H](Cc1ccc(O)cc1)NC(=O)[C@H](CCCCN)NC(=O)[C@H](CO)NC(=O)[C@H](Cc1ccc(O)cc1)NC(=O)[C@H](CC(=O)O)NC(=O)[C@H](CO)NC(=O)[C@@H](NC(=O)[C@H](Cc1ccccc1)NC(=O)[C@@H](NC(=O)CNC(=O)[C@H](CCC(N)=O)NC(=O)[C@H](CO)NC(=O)[C@@H](N)Cc1c[nH]cn1)[C@@H](C)O)[C@@H](C)O)C(C)C)C(=O)N[C@@H](C)C(N)=O)C(=O)O` [Compound 205] (H-HSQGTFTSDYSKYLDSKAAHDFVEWLLK([γGlu-Palmitoyl])A-NH2), the EC50 in test [1] stood at 0.09 nM; in test [2], 0.1 nM.

The values above are taken from patent publication US20130157953A1, “TREATMENT OF CARDIAC CONDITIONS” (Zealand Pharma A/S, priority 2010, published 2013).
